# Literature values in US20260024626A1, “TOXICITY […], OPERATION METHOD OF TOXICITY […], AND OPERATION PROGRAM OF TOXICITY […]” (FUJIFILM Corporation, priority 2023, published 2026).
# Like-named read-outs stand apart in the source and are kept apart here.
# Legend:
# [1] = actual test outcome, as against the positive outcome expected from the assumed metabolic reaction
# [2] = With metabolic activation (rat liver extract and coenzyme added)
# [3] = Without metabolic activation (no rat liver extract and coenzyme)
Compound,"Ames test result (toxicity), TA98, Intercalation between base pairs (TA98; [2])","Ames test result (toxicity), TA98, Intercalation between base pairs (TA98; [3])","Ames test result (toxicity), TA1535, Covalent bonding to DNA (TA1535; [2])","Ames test result (toxicity), TA1535, Covalent bonding to DNA (TA1535; [3])","Ames test result (toxicity), TA1537, Intercalation between base pairs (TA1537; [2])","Ames test result (toxicity), TA1537, Intercalation between base pairs (TA1537; [3])","Ames test result (toxicity), WP2uvrA, Covalent bonding to DNA (WP2uvrA; [2])","Ames test result (toxicity), WP2uvrA, Covalent bonding to DNA (WP2uvrA; [3])","Ames test result (toxicity), TA100, Covalent bonding to DNA (TA100; [2])","Ames test result (toxicity), TA100, Covalent bonding to DNA (TA100; [3])",determination in the in vitro toxicity evaluation test [1]
Nc1ccccc1Cl [compound C],No,No,No,No,No,No,No,No,No,No,
monomethylnitrobenzene,,,,,,,,,,,negative determination
Nc1ccccc1-c1ccccc1 [compound B],No,No,No,No,No,No,No,No,Toxic,No,
Nc1ccccc1O [compound A],No,No,No,No,No,No,No,No,Toxic,No,
